Experimental findings from patent US10557124B2, “Compositions and methods for obtaining stem cell derived lung tissue, and related uses thereof” (The Regents of the University of Michigan, priority 2015, dated 2020) are described below.

The test system of experiment [1] is anterior foregut endoderm (hESC-derived, ActivinA then NOG/SB). Description: qRT-PCR of SHH, NKX2.1, PAX8 in foregut endoderm monolayer cultures treated with FGF/HH modulators. It counts as cell-based, human. The following applies: for SHH expression / NKX2.1 expression / PAX8 expression: vs foregut control (FGF2: vs untreated endoderm controls), FGF2 50/500 ng/mL, SU 10 μM; for NKX2.1 expression / PAX8 expression: Sant-2 10 μM; for PAX8 expression: SAG 1 μM. An excerpt:
Many signaling pathways are important for lung induction and development (see, e.g., Wong A P, et al., Nat Biotechnol. 2012 Aug. 26; Huang S X L, et al., Nature; 2013 Dec. 1; 1-11; Firth A L, et al., Proceedings of the National Academy of Sciences. 2014 Apr. 29; 111(17):E1723-30; Mou H, et al., Cell Stem Cell. 2012 Apr. 6; 10(4):385-97; Ghaedi M, et al., J. Clin. Invest. 2013 Nov. 1; 123(11):4950-62; Longmire T A, et al., Cell Stem Cell. 2012 Apr. 6; 10(4):398-411; Rankin S A, Zorn A M. Gene Regulatory Networks Governing Lung Specification. J Cell Biochem. 2014 Mar. 19; Morrisey E E, et al., Developmental Cell. Elsevier Inc; 2010 Jan. 19; 18(1):8-23; Min H, et al., Genes & Development. 1998 Oct. 15; 12(20):3156-61; Weaver M, et al., Development. 2000 June; 127(12):2695-704). […] 2011 Feb. 3; 470(7332):105-9; Wells J M, et al., Development. 2014 February; 141(4):752-60; Motoyama J, et al., Nat Genet. 1998 September; 20(1):54-7) and Hh signaling is important for lung mesenchyme proliferation in vivo (see, e.g., Bellusci S, et al., Development. 1997 January; 124(1):53-63). […] It has been reported that approximately 85-95% of cells are endoderm, but a portion of the remaining cells are mesodermal and this small mesodermal population is maintained in the spheroids and organoids (see, e.g., Spence J R, et al., Nature. 2011 Feb. 3; 470(7332):105-9; McCracken K W, et al., Nature; 2014 Oct. 29; 1-19; Green M D, et al., Nat Biotechnol.; 2011 Feb. 27; 1-7) (FIG. 4). Therefore, based on mouse and hPSC studies, it was hypothesized that FGF and/or HH signaling would induce an NKX2.1+ lung lineage in anterior foregut endoderm. To test this hypothesis experiments initially focused on adherent endoderm monolayer cultures to optimize induction conditions. Cultures were treated for 4 days with ActivinA followed by an additional 4 days with NOG/SB (referred to as Foregut). Controls consisted of ActivinA treatment only followed by no additional growth factors (Endoderm controls), or ActivinA followed by NOG/SB, followed by no additional factors (Foregut controls). All experimental groups were compared to both endoderm and foregut controls (FIG. 6). The ability of FGF2 to induce SHH, NKX2.1 and PAX8 was first tested by exposing foregut cultures to low and high concentrations of FGF2 (50,500 ng/mL) (FIG. 6A). […] It was also observed that dual NOG/SB inhibition in endoderm cultures induced robust NKX2.1 and PAX8 expression without adding FGF2 (FIG. 1B, 6A). Thus, it was desired to determine if NKX2.1 expression in foregut cultures was due to endogenous FGF and/or HH signaling. To test this, the FGF or HH pathway was inhibited with small molecules SU5402 (SU, 10 μm) and Sant-2 (10 μm) respectively (FIG. 6B-C). Treating foregut cultures with the FGF inhibitor SU caused a significant, robust reduction in PAX8 and a modest reduction in SHH, while NKX2.1 expression was unchanged compared to foregut control (FIG. 6B). […] To test if HH signaling was able to induce NKX2.1 in foregut cultures, the Smoothened agonist, SAG (1 μM), was added to foregut cultures. The addition of SAG induced a 6.5 fold increase of NKX2.1 expression above foregut controls (FIG. 6D).
This combination caused an additional increase in NKX2.1 expression (21 fold vs. 6.5 fold with SAG only, when compared to foregut) and a concomitant decrease in PAX8 mRNA (FIG. 6D).
After differentiation into definitive endoderm, foregut endoderm was differentiated, essentially as described (see, e.g., Green M D, et al., Nat Biotechnol. Nature Publishing Group; 2011 Feb. 27; 1-7). Briefly, cells were incubated in foregut media: Advanced DMEM/F12 plus N-2 and B27 supplement, 10 mM Hepes, lx L-Glutamine (200 mM), lx Penicillin-streptomycin (5,000 U/mL, all from Life Technologies) with 200 ng/mL Noggin (NOG, R&D Systems) and 10 μM SB431542 (SB, Stemgent) for 4 days. […]
A general note: Real-time PCR tracks product formation cycle by cycle.

Experiment [2] has as its system NOG/SB/F/Ch/SAG treated foregut spheroids. Description: Expansion of foregut spheroids in Matrigel into lung organoids. It counts as cell-based, human. The following applies: FGF10 500 ng/mL, Matrigel 3D culture. From the text: NOG/SB/F/Ch/SAG treated foregut spheroids were embedded in Matrigel to provide a 3D growth environment. Spheroids maintained in basal media supplemented with 1% FBS lost ECAD+ epithelial structures and were mainly comprised of mesenchyme within 20 days of 3D culture (FIG. 9D,E). FGF10 is essential for branching morphogenesis and maintenance of lung progenitor cells during development as well as tissue homeostasis in the adult lung (see, e.g., Motoyama J, et al., Nat Genet. 1998 September; 20(1):54-7; Li Y, et al., Developmental Biology. 2004 Jun. 1; 270(1):214-31; Bellusci S, et al., Development. 1997 January; 124(1):53-63; Min H, et al., Genes & Development. 1998 Oct. 15; 12(20):3156-61; Weaver M, et al., Development. 2000 June; 127(12):2695-704; Agha El E, et al., Development. 2013 Dec. 18; Volckaert T, et al., Development 2013 September; 140(18):3731-42). It was observed that the addition of FGF10 (500 ng/mL) allowed spheroids to expand and be passaged for over 100 days. FGF10 promoted the maintenance of ECAD+ epithelial structures with less mesenchymal contributions compared to both basal and FGF inhibitor conditions (FIG. 10D). […] SOX2+ domains and SOX9+ domains were distributed throughout the entire HLO as determined by whole mount immunofluorescence and confocal Z-sections (FIG. 14). […]

Regarding “FGF2: fibroblast growth factor 2 (R&D systems)”, in experiment [1], the SHH expression entry is “dose dependent increase”, the NKX2.1 expression result is reported as “modest increase” and the PAX8 expression entry is “dose dependent increase”.

For the molecule `Cc1c[nH]c(/C=C2\C(=O)Nc3ccccc32)c1CCC(=O)O` [SU5402], in experiment [1] (compared to foregut controls), the GLI1 expression entry is “not significantly different” and the PTCH1 expression entry is reported as “not significantly different”. In experiment [1], the SHH expression result is “significant reduction”, the NKX2.1 expression result is “not significantly different” and the PAX8 expression result is listed as “significant reduction”.

In the case of Sant-2, in experiment [1], the NKX2.1 expression entry is “significant reduction”.

B1: FGF10: protein that belongs to the fibroblast growth factor (FGF) family (protein, UniProt O15520 38-208, looked up)
Fibroblast growth factor 10: QALGQDMVSPEATNSSSSSFSSPSSAGRHVRSYNHLQGDVRWRKLFSFTKYFLKIEKNGKVSGTKKENCPYSILEITSVEIGVVAVKAINSNYYLAMNKKGKLYGSKEFNNDCKLKERIEENGYNTYASFNWQHNGRQMYVALNGKGAPRRGQKTRRKNTSAHFLPMVVHS
For the molecule B1, in experiment [2], the “time spheroids could expand and be passaged” value was “over 100 days”.
